Laboratory results from patent US10577368B2 (The United States of America, as represented by the …, priority 2013, dated 2020).

Key:
hA2AAR = hA2AAR (Homo sapiens (Human), UniProt P29274); experiment: Radioligand binding at hA2AAR, HEK293 cell membranes, [3H]CGS21680; conditions: for inhibition at 10 µM: read-out: hA2AAR % inhibition; for hA2AAR % inhibition: inhibition of binding at 10 μM
[1] = tested on: chronic constriction injury model of neuropathic pain; experiment: CCI model of neuropathic pain, reversal of mechano-allodynia; assay type: in vivo, mice; conditions: for Max. effect Emax (% ± SEM) / Time of peak protection / Effect at 3 h (% ± SEM): 3 μmol/kg p.o., mice; for Max. effect Emax (% ± SEM) / Time of peak protection: ipsilateral hind paw; for Efficacy in reversing NP in vivo (of full reversal at peak effect): CCI model
hA3AR = hA3AR (Homo sapiens (Human), UniProt P0DMS8); experiment: Radioligand binding at hA3AR, CHO cell membranes, [125I]I-AB-MECA
hA1AR = hA1AR (Homo sapiens (Human), UniProt P30542); experiment: Radioligand binding at hA1AR, CHO cell membranes, [3H]R-PIA; conditions: for inhibition at 10 µM: read-out: hA1AR % inhibition; for hA1AR % inhibition: inhibition of binding at 10 μM
human DAT = human DAT (Homo sapiens (Human), UniProt Q01959); experiment: Radioligand ([3H]WIN35428) binding at the dopamine transporter; conditions: 10 μM
mA3AR = mA3AR (Mus musculus (Mouse), UniProt Q61618); experiment: Competition binding at mA3AR, HEK293 cell membranes
Sequence of mA3AR (Q61618 whole entry): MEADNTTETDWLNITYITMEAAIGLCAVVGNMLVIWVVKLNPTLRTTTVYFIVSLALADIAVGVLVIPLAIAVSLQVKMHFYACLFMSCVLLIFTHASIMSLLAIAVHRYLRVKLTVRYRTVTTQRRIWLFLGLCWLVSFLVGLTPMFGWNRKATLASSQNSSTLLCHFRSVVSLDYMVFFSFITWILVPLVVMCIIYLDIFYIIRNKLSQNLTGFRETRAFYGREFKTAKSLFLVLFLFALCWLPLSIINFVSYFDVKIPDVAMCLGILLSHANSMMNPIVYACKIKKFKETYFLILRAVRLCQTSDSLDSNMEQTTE

Sequence of hA3AR (P0DMS8 whole entry): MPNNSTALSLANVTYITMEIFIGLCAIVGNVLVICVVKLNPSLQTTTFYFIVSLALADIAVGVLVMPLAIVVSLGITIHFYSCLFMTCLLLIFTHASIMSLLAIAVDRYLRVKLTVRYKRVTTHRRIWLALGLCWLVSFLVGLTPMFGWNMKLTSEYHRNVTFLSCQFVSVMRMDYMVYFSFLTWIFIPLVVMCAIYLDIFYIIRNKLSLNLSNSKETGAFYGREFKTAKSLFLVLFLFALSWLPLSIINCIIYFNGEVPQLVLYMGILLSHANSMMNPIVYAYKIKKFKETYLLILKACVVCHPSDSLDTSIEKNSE
Sequence of hA1AR (P30542 whole entry): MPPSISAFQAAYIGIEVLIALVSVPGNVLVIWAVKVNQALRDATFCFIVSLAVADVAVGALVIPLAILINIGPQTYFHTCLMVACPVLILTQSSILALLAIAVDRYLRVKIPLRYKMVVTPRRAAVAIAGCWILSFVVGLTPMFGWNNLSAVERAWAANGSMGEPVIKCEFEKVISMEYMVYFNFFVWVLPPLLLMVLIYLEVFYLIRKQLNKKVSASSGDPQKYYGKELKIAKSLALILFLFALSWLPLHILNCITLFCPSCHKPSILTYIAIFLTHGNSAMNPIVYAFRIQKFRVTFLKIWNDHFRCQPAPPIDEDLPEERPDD
Sequence of hA2AAR (P29274 whole entry): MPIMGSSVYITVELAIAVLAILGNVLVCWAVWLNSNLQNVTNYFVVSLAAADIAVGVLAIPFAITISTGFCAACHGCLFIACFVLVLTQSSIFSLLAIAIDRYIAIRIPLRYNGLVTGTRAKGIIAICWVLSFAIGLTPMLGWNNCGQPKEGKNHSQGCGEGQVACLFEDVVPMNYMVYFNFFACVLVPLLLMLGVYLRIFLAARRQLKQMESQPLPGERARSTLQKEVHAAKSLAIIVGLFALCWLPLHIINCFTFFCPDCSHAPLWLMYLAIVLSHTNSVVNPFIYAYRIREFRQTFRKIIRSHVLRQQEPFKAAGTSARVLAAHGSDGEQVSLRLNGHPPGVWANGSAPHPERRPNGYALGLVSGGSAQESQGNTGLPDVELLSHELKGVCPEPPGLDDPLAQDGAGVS
Sequence of human DAT (Q01959 whole entry): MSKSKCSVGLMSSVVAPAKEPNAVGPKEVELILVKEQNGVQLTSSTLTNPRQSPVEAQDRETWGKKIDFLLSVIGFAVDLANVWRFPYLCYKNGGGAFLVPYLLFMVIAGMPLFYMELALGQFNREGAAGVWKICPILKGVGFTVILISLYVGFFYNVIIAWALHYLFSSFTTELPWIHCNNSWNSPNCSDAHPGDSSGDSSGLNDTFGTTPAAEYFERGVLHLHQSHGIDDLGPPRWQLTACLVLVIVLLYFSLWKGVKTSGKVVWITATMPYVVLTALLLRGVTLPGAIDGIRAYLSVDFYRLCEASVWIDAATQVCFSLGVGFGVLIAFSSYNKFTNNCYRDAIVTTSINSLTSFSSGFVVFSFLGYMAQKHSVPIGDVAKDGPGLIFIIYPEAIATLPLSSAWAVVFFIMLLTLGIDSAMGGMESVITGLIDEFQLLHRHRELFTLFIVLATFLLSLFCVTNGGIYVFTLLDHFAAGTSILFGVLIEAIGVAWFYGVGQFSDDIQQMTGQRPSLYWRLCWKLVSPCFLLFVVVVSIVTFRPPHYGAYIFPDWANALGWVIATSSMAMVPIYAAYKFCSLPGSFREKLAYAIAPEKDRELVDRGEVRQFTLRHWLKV

Row | SMILES | inhibition at 10 µM (hA2AAR) | Ki (hA3AR) | inhibition at 10 µM (hA1AR) | hA2AAR % inhibition (hA2AAR) | Ki (mA3AR) | Max. effect Emax (% ± SEM) [1] | Time of peak protection [1] | Efficacy in reversing NP in vivo (of full reversal at peak effect) [1] | Effect at 3 h (% ± SEM) [1] | hA1AR % inhibition (hA1AR) | Increase of the level of radioligand ([3H]WIN35428) binding at the human DAT (human DAT) | Ki (hA2AAR)
1 | CNC(=O)[C@@]12C[C@@H]1[C@@H](n1cnc3c(NC)nc(C#Cc4ccc(OC)cc4)nc31)[C@H](O)[C@@H]2O [Compound 11, (1S,2R,3S,4R,5S)-2,3-Dihydroxy-4-(2-((4-methoxyphenyl)ethynyl)-6-(methylamino)-9H-purin-9-yl)-N-methylbicyclo[3.1.0]hexane-1-carboxamide] | 24 ± 8% | 0.63 ± 0.07 nM | 10% |  |  |  | 0.5 to 1 h |  |  |  |  | 
2 | CCNc1nc(C#Cc2ccc(Cl)s2)nc2c1ncn2[C@H]1C(O)[C@@H](O)[C@]2(C(=O)NC)C[C@H]12 (stereo partly drawn) [Compound 126] |  |  |  |  |  |  |  |  |  |  | 329% | 
3 | CNC(=O)[C@@]12C[C@@H]1[C@@H](n1cnc3c(NC)nc(C#Cc4ncccn4)nc31)[C@H](O)[C@@H]2O [Compound 6, (1S,2R,3S,4R,5S)-2,3-Dihydroxy-N-methyl-4-(6-(methylamino)-2-(pyrimidin-2-ylethynyl)-9H-purin-9-yl)bicyclo[3.1.0]hexane-1-carboxamide] | 27 ± 5% |  | 25 ± 10% |  | 65 ± 6 nM | 92.3 ± 7.7% | 0.5 to 1 h | less than full efficacy |  |  |  | 
4 | CNC(=O)[C@]12CC1[C@@H](n1cnc3c(NCCc4ccccc4)nc(-n4cc(-c5ccc(Cl)s5)nn4)nc31)[C@H](O)C2O (stereo partly drawn) [Compound 121] |  | 6.66 ± 2.07 nM |  |  |  | 90% | 0.5 to 3 h |  | 80% | 58% |  | 
5 | CNC(=O)[C@]12CC1[C@@H](n1cnc3cnc(C#Cc4ccccc4)nc31)[C@H](O)C2O (stereo partly drawn) [Compound 402] |  | 1.51 ± 0.41 nM |  |  |  |  |  |  |  | 28 ± 4% |  | 1200 nM
6 | CNC(=O)[C@]12CC1[C@@H](n1cnc3c(NCCc4ccccc4)nc(N=[N+]=[N-])nc31)[C@H](O)C2O (stereo partly drawn) [Compound 117] |  | 0.85 ± 0.1 nM |  | 71% |  |  |  |  |  | 93% |  | 
7 | CNC(=O)[C@]12CC1[C@@H](n1cnc3c(NCCc4ccccc4)nc(I)nc31)[C@H](O)C2O (stereo partly drawn) [Compound 119] |  | 0.91 ± 0.14 nM |  |  |  |  |  |  |  | 68% |  | 
8 | CNC(=O)[C@]12CC1[C@@H](n1cnc3c(NC)nc(-n4cc(-c5cnn(C)c5)nn4)nc31)[C@H](O)C2O (stereo partly drawn) [Compound 106] |  | 2.16 ± 0.32 nM |  | 1 ± 1% |  | 85 ± 5% | 1 h |  | 22 ± 7% | 2 ± 2% |  | 
9 | CNC(=O)[C@]12CC1[C@@H](n1cnc3c(NC)nc(-n4cc(-c5ccccn5)nn4)nc31)[C@H](O)C2O (stereo partly drawn) [Compound 103] |  | 1.84 ± 0.38 nM |  | 26 ± 2% |  | 55 ± 6% | 1 h |  | 22 ± 7% | 29 ± 7% |  | 
10 | CNC(=O)[C@@]12C[C@@H]1[C@@H](n1cnc3c(NC)nc(C#Cc4cc[nH]n4)nc31)[C@H](O)[C@@H]2O [Compound 9, (1S,2R,3S,4R,5S)-4-(2-((1H-Pyrazol-3-yl)ethynyl)-6-(methylamino)-9H-purin-9-yl)-2,3-dihydroxy-N-methylbicyclo[3.1.0]hexane-1-carboxamide] | 19 ± 2% |  | 30% |  | 50 ± 2 nM |  | 0.5 to 1 h |  |  |  |  | 

Second part, led by results:

Row | inhibition at 10 µM (hA2AAR) | Ki (hA3AR) | inhibition at 10 µM (hA1AR) | hA2AAR % inhibition (hA2AAR) | Ki (mA3AR) | SMILES | Max. effect Emax (% ± SEM) [1] | Time of peak protection [1] | Efficacy in reversing NP in vivo (of full reversal at peak effect) [1] | Effect at 3 h (% ± SEM) [1] | hA1AR % inhibition (hA1AR) | Increase of the level of radioligand ([3H]WIN35428) binding at the human DAT (human DAT) | Ki (hA2AAR)
11 | 20 ± 7% | 0.77 ± 0.17 nM | 12% |  |  | CNC(=O)[C@@]12C[C@@H]1[C@@H](n1cnc3c(NC)nc(C#Cc4ccccc4OC)nc31)[C@H](O)[C@@H]2O [Compound 13, (1S,2R,3S,4R,5S)-2,3-Dihydroxy-4-(2-((2-methoxyphenyl)ethynyl)-6-(methylamino)-9H-purin-9-yl)-N-methylbicyclo[3.1.0]hexane-1-carboxamide] | 64.3 ± 10.7% | 1 h | ~70% |  |  |  | 
12 |  | 1.25 ± 0.27 nM |  | 40 ± 6% |  | CNC(=O)[C@]12CC1[C@@H](n1cnc3c(NC)nc(-n4cc(-c5cc6ccccc6o5)nn4)nc31)[C@H](O)C2O (stereo partly drawn) [Compound 108] | 55 ± 6% | 1 h |  | 8 ± 8% | 12 ± 7% |  | 
13 |  | 2.21 ± 0.34 nM |  | 8 ± 3% |  | CNC(=O)[C@]12CC1[C@@H](n1cnc3c(NC)nc(-n4cc(-c5cnccn5)nn4)nc31)[C@H](O)C2O (stereo partly drawn) [Compound 105] | 78 ± 0% | 1 h |  | 22 ± 7% | 25 ± 10% |  | 
14 |  | 3.48 ± 0.97 nM |  | 27 ± 3% |  | CNC(=O)[C@]12CC1[C@@H](n1cnc3c(NC)nc(-n4cc(-c5ncccn5)nn4)nc31)[C@H](O)C2O (stereo partly drawn) [Compound 104] | 89 ± 11% | 1 h |  | 39 ± 10% | 14 ± 7% |  | 
15 | 3 ± 2% | 0.52 ± 0.04 nM | 11% |  |  | CNC(=O)[C@@]12C[C@@H]1[C@@H](n1cnc3c(NC)nc(C#Cc4ccsc4)nc31)[C@H](O)[C@@H]2O [Compound 16, (1 S,2R,3S,4R,5S)-2,3-Dihydroxy-N-methyl-4-(6-(methylamino)-2-(thiophen-3-ylethynyl)-9H-purin-9-yl)bicyclo[3.1.0]hexane-1-carboxamide] |  | 0.5 to 1 h | diminished |  |  |  | 
16 | 2 ± 2% | 2.07 ± 0.16 nM | 15% |  |  | CNC(=O)[C@@]12C[C@@H]1[C@@H](n1cnc3c(NC)nc(C#Cc4ccncc4)nc31)[C@H](O)[C@@H]2O [Compound 300, (1S,2R,3S,4R,5S)-2,3-Dihydroxy-N-methyl-4-(6-(methylamino)-2-(pyridin-4-ylethynyl)-9H-purin-9-yl)bicyclo[3.1.0] hexane-1-carboxamide] |  | 1 h | low efficacy |  |  |  | 
17 |  | 0.58 ± 0.17 nM |  | 7 ± 6% |  | CNC(=O)[C@]12CC1[C@@H](n1cnc3c(NC)nc(-n4cc(-c5ccc(Br)s5)nn4)nc31)[C@H](O)C2O (stereo partly drawn) [Compound 111] | 69 ± 9% | 1 h |  | 14 ± 2% |  |  | 
18 | 26 ± 5% | 0.91 ± 0.07 nM | 8 ± 4% |  |  | CNC(=O)[C@@]12C[C@@H]1[C@@H](n1cnc3c(NC)nc(C#Cc4cccc(OC)c4)nc31)[C@H](O)[C@@H]2O [Compound 12, (1S,2R,3S,4R,5S)-2,3-Dihydroxy-4-(2-((3-methoxyphenyl)ethynyl)-6-(methylamino)-9H-purin-9-yl)-N-methylbicyclo[3.1.0]hexane-1-carboxamide] |  | 0.5 to 2 h |  |  |  |  | 
19 | 4 ± 4% | 1.5 ± 0.28 nM | 18% |  |  | CCc1ccc(C#Cc2nc(NC)c3ncn([C@H]4[C@H](O)[C@H](O)[C@]5(C(=O)NC)C[C@H]45)c3n2)o1 [Compound 34, (1S,2R,3S,4R,5S)-4-(2-((5-Ethylfuran-2-yl)ethynyl)-6-(methylamino)-9H-purin-9-yl)-2,3-dihydroxy-N-methylbicyclo[3.1.0]hexane-1-carboxamide] |  | 1 h |  |  |  |  | 
